PubChem BioAssay AID248 (DTP/NCI, 2004)
Values joined by “and” are separate entries in the source; they are usually repeats but may differ in a detail not shown here. Equal entries are not always repeated. Inconclusive results and toxic doses are left out.

Test system: L1210 leukemia ip in BDF1 mice, survival T/C
Test: NCI In Vivo Anticancer Drug Screen. Data for tumor model L1210 Leukemia (intraperitoneal) in B6D2F1 (BDF1) mice
Conditions: endpoint: mean survival time, higher = longer survival
In short: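 Mice bearing the transplanted tumor received compound or vehicle. Survival of the treated group was divided by that of the vehicle-treated control group to give the ratio.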

[1] = dose: 100.0 mg/kg/injection, schedule: Q01DX009 (ip), vehicle: Klucel (hydroxypropylcellulose) (HPC)
[2] = dose: 100.0 mg/kg/injection, schedule: Q04DX003 (ip), vehicle: Klucel (hydroxypropylcellulose) (HPC)
[3] = dose: 200.0 mg/kg/injection, schedule: Q01DX009 (ip), vehicle: Klucel (hydroxypropylcellulose) (HPC)
[4] = dose: 200.0 mg/kg/injection, schedule: Q04DX003 (ip), vehicle: Klucel (hydroxypropylcellulose) (HPC)
[5] = dose: 400.0 mg/kg/injection, schedule: Q04DX003 (ip), vehicle: Klucel (hydroxypropylcellulose) (HPC)
[6] = dose: 100.0 mg/kg/injection, schedule: Q01DX001 (ip), vehicle: saline
[7] = dose: 200.0 mg/kg/injection, schedule: Q01DX001 (ip), vehicle: saline
[8] = dose: 400.0 mg/kg/injection, schedule: Q01DX001 (ip), vehicle: saline
[9] = dose: 50.0 mg/kg/injection, schedule: Q04DX003 (ip), vehicle: Klucel (hydroxypropylcellulose) (HPC)
[10] = dose: 100.0 mg/kg/injection, schedule: Q01DX001 (ip), vehicle: other
[11] = dose: 200.0 mg/kg/injection, schedule: Q01DX001 (ip), vehicle: other
[12] = dose: 400.0 mg/kg/injection, schedule: Q01DX001 (ip), vehicle: other
[13] = dose: 100.0 mg/kg/injection, schedule: Q01DX001 (ip), vehicle: carboxymethylcellulose (CMC)
[14] = dose: 200.0 mg/kg/injection, schedule: Q01DX001 (ip), vehicle: carboxymethylcellulose (CMC)
[15] = dose: 400.0 mg/kg/injection, schedule: Q01DX001 (ip), vehicle: carboxymethylcellulose (CMC)
[16] = dose: 100.0 mg/kg/injection, schedule: Q04DX002 (ip), vehicle: Klucel (hydroxypropylcellulose) (HPC)
[17] = dose: 200.0 mg/kg/injection, schedule: Q04DX002 (ip), vehicle: Klucel (hydroxypropylcellulose) (HPC)
[18] = dose: 400.0 mg/kg/injection, schedule: Q04DX002 (ip), vehicle: Klucel (hydroxypropylcellulose) (HPC)
[19] = dose: 75.0 mg/kg/injection, schedule: Q01DX001 (ip), vehicle: saline
[20] = dose: 150.0 mg/kg/injection, schedule: Q01DX001 (ip), vehicle: saline
[21] = dose: 100.0 mg/kg/injection, schedule: Q01DX009 (ip), vehicle: saline

Cc1nc(N)[nH]c(=O)c1Br
T/C [1]: 97 % of control
T/C [2]: 93 % of control
T/C [3]: 100 % of control
T/C [4]: 98 % of control
T/C [5]: 98 % of control

COc1ccc(/C=N/NC(=O)c2ccc(OC)cc2)cc1
T/C [2]: 101 % of control
T/C [4]: 90 % of control
T/C [5]: 92 % of control

Nc1ncnc2c1ncn2C1OCC(CO)C1O (stereo unspecified)
T/C (dose: 33.0 mg/kg/injection, schedule: Q01DX001 (ip), vehicle: carboxymethylcellulose (CMC)): 97 % of control
T/C (dose: 66.5 mg/kg/injection, schedule: Q01DX001 (ip), vehicle: carboxymethylcellulose (CMC)): 108 % of control
T/C [6]: 107 % of control
T/C (dose: 133.0 mg/kg/injection, schedule: Q01DX001 (ip), vehicle: carboxymethylcellulose (CMC)): 97 % of control
T/C [7]: 101 % of control
T/C [8]: 107 % of control

COc1ccc(/C=C2\SC(=S)NC2=O)cc1OC
T/C (dose: 100.0 mg/kg/injection, schedule: Q01DX009 (ip), vehicle: saline sonified): 96 % of control
T/C [2]: 98 % of control
T/C (dose: 200.0 mg/kg/injection, schedule: Q01DX009 (ip), vehicle: saline sonified): 108 % of control
T/C [4]: 96 % of control
T/C (dose: 400.0 mg/kg/injection, schedule: Q01DX009 (ip), vehicle: saline sonified): 94 % of control
T/C [5]: 96 % of control

Nc1ccn(C2OC(CO)C(O)C2O)c(=NCC(=O)O)n1 (stereo unspecified)
T/C (dose: 100.0 mg/kg/injection, schedule: Q01DX005 (ip), vehicle: saline): 120 % of control
T/C (dose: 200.0 mg/kg/injection, schedule: Q01DX005 (ip), vehicle: saline): 122 % of control

O=C1c2ccccc2-c2ccc(Br)c3cccc1c23
T/C (dose: 50.0 mg/kg/injection, schedule: Q01DX009 (ip), vehicle: Klucel (hydroxypropylcellulose) (HPC)): 93 % of control
T/C [9]: 100 % of control
T/C [1]: 91 % of control
T/C [2]: 95 % of control
T/C [3]: 91 % of control
T/C [4]: 100 % of control

CN(Cc1cnc2nc(N)nc(N)c2n1)c1ccc(C(=O)NC(CCC(=O)NCC(=O)O)C(=O)O)cc1 (stereo unspecified)
T/C (dose: 5.0 mg/kg/injection, schedule: Q01DX009 (ip), vehicle: sodium bicarbonate): 174 % of control
T/C (dose: 10.0 mg/kg/injection, schedule: Q01DX009 (ip), vehicle: sodium bicarbonate): 161 % of control

COC1=CC(=O)CC(C)C12Oc1c(Cl)c(OC)cc(OC)c1C2=O (stereo unspecified)
T/C (dose: 5.0 mg/kg/injection, schedule: Q## X008 (ip), vehicle: other): 103 % of control
T/C (dose: 10.0 mg/kg/injection, schedule: Q## X008 (ip), vehicle: other): 91 % of control
T/C (dose: 20.0 mg/kg/injection, schedule: Q## X008 (ip), vehicle: other): 94 % of control
T/C (dose: 40.0 mg/kg/injection, schedule: Q## X008 (ip), vehicle: other): 91 % of control
T/C (dose: 50.0 mg/kg/injection, schedule: Q## X024 (ip), vehicle: other): 111 % of control
T/C (dose: 80.0 mg/kg/injection, schedule: Q## X008 (ip), vehicle: other): 88 % of control
T/C (dose: 100.0 mg/kg/injection, schedule: Q## X024 (ip), vehicle: other): 100 % of control
T/C (dose: 200.0 mg/kg/injection, schedule: Q## X024 (ip), vehicle: other): 100 % of control
T/C (dose: 400.0 mg/kg/injection, schedule: Q## X024 (ip), vehicle: other): 95 % of control
T/C (dose: 800.0 mg/kg/injection, schedule: Q## X024 (ip), vehicle: other): 100 % of control

CCOC(=O)/C=C/C(=O)N(C)c1ccccc1
T/C [10]: 100 % of control
T/C [11]: 100 % of control
T/C [12]: 108 % of control

Cc1cccc(NC(=O)OCCN(CCOC(=O)Nc2cccc(C)c2)Cc2ccccc2)c1
T/C (dose: 50.0 mg/kg/injection, schedule: Q01DX001 (ip), vehicle: carboxymethylcellulose (CMC)): 90 % of control
T/C [13]: 98 % of control
T/C [14]: 104 % of control
T/C [15]: 90 % of control

S=C(NCC1CCCO1)Nc1cccc2ccccc12 (stereo unspecified)
T/C [16]: 95 % of control
T/C [17]: 91 % of control
T/C [18]: 95 % of control

O=C1C(c2c[nH]c3ccc(Br)cc23)=Nc2ccc(Br)cc21
T/C [6]: 102 % of control
T/C [7]: 100 % of control
T/C [8]: 105 % of control

Cc1sc2ccc3ccccc3c2[n+]1C
T/C [9]: 105 % of control
T/C [19]: 103 % of control
T/C [2]: 109 % of control
T/C [20]: 111 % of control

Cc1cc(O)c(N=Nc2ccc(C(=O)O)cc2)cc1C
T/C (dose: 25.0 mg/kg/injection, schedule: Q04DX003 (ip), vehicle: carboxymethylcellulose (CMC)): 108 % of control
T/C (dose: 50.0 mg/kg/injection, schedule: Q04DX003 (ip), vehicle: carboxymethylcellulose (CMC)): 103 % of control
T/C [10]: 102 % of control
T/C (dose: 100.0 mg/kg/injection, schedule: Q04DX003 (ip), vehicle: carboxymethylcellulose (CMC)): 101 % of control
T/C [11]: 96 % of control
T/C (dose: 200.0 mg/kg/injection, schedule: Q04DX003 (ip), vehicle: carboxymethylcellulose (CMC)): 101 % of control
T/C [12]: 93 % of control
T/C (dose: 400.0 mg/kg/injection, schedule: Q04DX003 (ip), vehicle: carboxymethylcellulose (CMC)): 95 % of control

CN(C)c1ncnc2c1ncn2C1CCCO1 (stereo unspecified)
T/C (dose: 25.0 mg/kg/injection, schedule: Q01DX Z (ip), vehicle: methylcellulose (MC)): 97 % of control
T/C (dose: 50.0 mg/kg/injection, schedule: Q01DX Z (ip), vehicle: methylcellulose (MC)): 92 % of control

C/C=C/C(=O)Nc1cccc(OC(=O)NC(C)(C)C)c1
T/C (dose: 100.0 mg/kg/injection, schedule: Q01DX009 (ip), vehicle: saline with Tween-80): 91 % of control
T/C (dose: 400.0 mg/kg/injection, schedule: Q01DX009 (ip), vehicle: saline with Tween-80): 86 % of control

C(=Nc1ccc2c(c1)Cc1ccccc1-2)c1ccnc2ccccc12
T/C [1]: 97 % of control
T/C [2]: 92 % of control
T/C [3]: 100 % of control
T/C [4]: 90 % of control
T/C (dose: 400.0 mg/kg/injection, schedule: Q01DX009 (ip), vehicle: Klucel (hydroxypropylcellulose) (HPC)): 97 % of control
T/C [5]: 94 % of control

Cc1noc(N)c1[N+](=O)[O-]
T/C (dose: 12.5 mg/kg/injection, schedule: Q01DX009 (ip), vehicle: saline): 97 % of control
T/C (dose: 25.0 mg/kg/injection, schedule: Q01DX009 (ip), vehicle: saline): 109 % of control
T/C (dose: 50.0 mg/kg/injection, schedule: Q01DX009 (ip), vehicle: saline): 97 % of control
T/C [21]: 86 % of control
T/C (dose: 100.0 mg/kg/injection, schedule: Q04DX003 (ip), vehicle: other): 92 % of control
T/C (dose: 200.0 mg/kg/injection, schedule: Q04DX003 (ip), vehicle: other): 96 % of control
T/C (dose: 400.0 mg/kg/injection, schedule: Q04DX003 (ip), vehicle: other): 92 % of control

Nc1cc2c(cc1Br)-c1cc(Br)c(N)cc1C2=O
T/C [13]: 98 % of control
T/C [14]: 98 % of control
T/C [15]: 102 % of control

CC(C)(C)C#CCCl
T/C [6]: 96 % of control
T/C [21]: 116 % of control
T/C [7]: 105 % of control
T/C (dose: 200.0 mg/kg/injection, schedule: Q01DX009 (ip), vehicle: saline): 97 % of control
T/C [8]: 94 % of control

O=C1OC(c2ccccc2)=C/C1=C\c1[nH]c(=S)[nH]c(=O)c1Cc1ccc(Cl)cc1
T/C (dose: 100.0 mg/kg/injection, schedule: Q01DX001 (ip), vehicle: saline with Tween-80): 102 % of control
T/C (dose: 200.0 mg/kg/injection, schedule: Q01DX001 (ip), vehicle: saline with Tween-80): 89 % of control
T/C (dose: 400.0 mg/kg/injection, schedule: Q01DX001 (ip), vehicle: saline with Tween-80): 90 % of control

O=C1CSSCC(=O)NCCN1
T/C [16]: 93 % of control and 96 % of control
T/C [17]: 93 % of control and 96 % of control
T/C [18]: 93 % of control and 96 % of control

COc1cc2c(cc1OC)C1=[N+](CCC1)CC2
T/C [19]: 101 % of control
T/C [13]: 97 % of control
T/C [20]: 102 % of control
T/C [14]: 94 % of control
T/C [15]: 100 % of control
